Results from US11680070B2, “Thieno[2,3-c]pyridazin-4(1H)-one derivative and application thereof” (MEDSHINE DISCOVERY INC., priority 2018, dated 2023).

Experiments:
[1] = biological target: human acetyl-CoA carboxylase 2 (hACC2) (Homo sapiens, UniProt O00763); experiment: In vitro ACC enzyme inhibition (ADP luminescence), hACC2; type: biochemical; settings: human ACC2 enzyme; 15 min pre-incubation, 1 hour reaction at room temperature
Description: (§1) The IC50 value was determined to evaluate the ability of the test compounds to inhibit acetyl-CoA carboxylase (ACC).
(§2) Protein: human acetyl-CoA carboxylase 1 (hACC1) and human acetyl-CoA carboxylase 2 (hACC2).
(§3) Cofactor: acetyl coenzyme A, ATP
(§4) Activator: potassium citrate
(§5) 1. 1 time of the enzyme/substrate/cofactor was added to the wells of the well plate.
(§6) 2. According to Acoustic technology, the solutions of the compounds in DMSO were added to the above enzyme mixture and the mixture was pre-incubated for 15 minutes.
(§7) 3. ATP was added to initiate the reaction and the mixture was shaken until thoroughly mixed.
(§8) 4. The mixture was incubated for 1 hour at room temperature.
(§9) 5. After quenching the reaction, the incubation continued for 40 minutes.
(§10) 6. After adding the detection reagents, the mixture was incubated for 30 minutes.
(§11) 8. Data analysis: based on the standard curve of ADP, the luminescence was converted into ADP product concentration and the enzyme activity was calculated. Graphpad Prism software was used to fit the curve to obtain the IC50 value.

[2] = biological target: human acetyl-CoA carboxylase 1 (hACC1) (Homo sapiens, UniProt Q13085); experiment: In vitro ACC enzyme inhibition (ADP luminescence), hACC1; type: biochemical; settings: human ACC1 enzyme; 15 min pre-incubation, 1 hour reaction at room temperature
Description: as §1, §2, §3, §4, §5, §6, §7, §8, §9, §10, §11

[3] = test system: NASH mouse model induced by HFD+CCl4; experiment: In vivo pharmacodynamic study in NASH mouse model induced by HFD+CCl4; settings: HFD+CCl4 mice; oral gavage QD Day 0-27; WX004B 0.5, 1, 3 mg/kg; reference I-181 3 mg/kg
Source text: The objective of this research is to study the effect of the compound on improving NASH and liver fibrosis in HFD+CCl4 mouse model, with 1-181 as the reference compound.
1-181 is an Acetyl-CoA carboxylase inhibitor and is currently undergoing a phase II clinical study on non-alcoholic fatty liver disease (NAFLD). The HFD+CCl4 mouse model used in this study is an animal model simulating human non-alcoholic fatty liver disease evolving into NASH, high-fat diet causes the fat accumulation and steatosis in liver cells; CCl4 (intraperitoneal injection, twice a week) simulates the “second hit” of liver injury.
The modeling for this experiment included two steps of high-fat feed and CCl4 induction. Firstly, the mice were fed with high-fat feed to induce non-alcoholic fatty liver, and mice with body weight >38 g were selected. The mice were continuously fed with high-fat feed, and simultaneously intraperitoneally injected with 25% CCl4, […], twice a week, for a total of four weeks. The day of starting CCl4 administration was set as day 0, and the time of starting CCl4 administration was set as hour 0. On the day of starting CCl4 administration, the intragastric administration was started, and the administration volume of each group was 5 mL/kg, once a day for 4 weeks (28 days). […]

[4] = Pharmacokinetics in C57BL/6 mice (iv and oral); type: in vivo; settings: mouse, male C57BL/6 mice, plasma; for AUC(0-t) / clearance / half-life: iv 2.0 mg/kg, oral 10 mg/kg (route not given); for half-life: read-out: Half-life T1/2 (converted); for bioavailability: oral 10 mg/kg vs iv 2.0 mg/kg, read-out: Bioavailability F
Description: Testing the pharmacokinetics characteristics of the compounds in C57BL/6 mice
C57BL/6 mice (male, 18-30 g, 7-9 weeks, Shanghai Lingchang Biotechnology Co., Ltd.)
The clear solution of the test compounds (0.5 mg/mL in 10% DMSO, 10% polyethylene glycol stearate, 80% water) was injected via tail vein into 4 male C57BL/6 mice (overnight fasted, 7-9 weeks), at a dose of 2.0 mg/kg. The suspensions or clear solutions of the test compounds (1 mg/mL in 10% PEG400, 90% (0.5% methylcellulose+0.2% Tween 80)) were administrated by oral gavage to 4 male C57BL/6 mice (overnight fasted, 7-9 weeks), at a dose of 10 mg/kg.
Two mice were set in each group and subjected to blood sampling alternatively, 4 to 5 time points per mouse. At 0.0833h (IV group only), 0.25 h, 0.5 h, 1.0 h, 2.0 h, 4.0 h, 6.0 h, 8.0 h, and 24 h after the intravenous or oral administration, about 30 μL of blood was collected by saphenous vein puncture and added into an anticoagulation tube with EDTA-K2, and the plasma was isolated by centrifugation. The drug plasma concentration was determined by LC-MS/MS, and WinNonlin™ Version 6.3 (Pharsight, Mountain View, Calif.) pharmacokinetic software was used to calculate relevant pharmacokinetic parameters using the non-compartmental model linear logarithmic trapezoidal method.

Sequence of human acetyl-CoA carboxylase 2 (hACC2) (O00763 whole entry): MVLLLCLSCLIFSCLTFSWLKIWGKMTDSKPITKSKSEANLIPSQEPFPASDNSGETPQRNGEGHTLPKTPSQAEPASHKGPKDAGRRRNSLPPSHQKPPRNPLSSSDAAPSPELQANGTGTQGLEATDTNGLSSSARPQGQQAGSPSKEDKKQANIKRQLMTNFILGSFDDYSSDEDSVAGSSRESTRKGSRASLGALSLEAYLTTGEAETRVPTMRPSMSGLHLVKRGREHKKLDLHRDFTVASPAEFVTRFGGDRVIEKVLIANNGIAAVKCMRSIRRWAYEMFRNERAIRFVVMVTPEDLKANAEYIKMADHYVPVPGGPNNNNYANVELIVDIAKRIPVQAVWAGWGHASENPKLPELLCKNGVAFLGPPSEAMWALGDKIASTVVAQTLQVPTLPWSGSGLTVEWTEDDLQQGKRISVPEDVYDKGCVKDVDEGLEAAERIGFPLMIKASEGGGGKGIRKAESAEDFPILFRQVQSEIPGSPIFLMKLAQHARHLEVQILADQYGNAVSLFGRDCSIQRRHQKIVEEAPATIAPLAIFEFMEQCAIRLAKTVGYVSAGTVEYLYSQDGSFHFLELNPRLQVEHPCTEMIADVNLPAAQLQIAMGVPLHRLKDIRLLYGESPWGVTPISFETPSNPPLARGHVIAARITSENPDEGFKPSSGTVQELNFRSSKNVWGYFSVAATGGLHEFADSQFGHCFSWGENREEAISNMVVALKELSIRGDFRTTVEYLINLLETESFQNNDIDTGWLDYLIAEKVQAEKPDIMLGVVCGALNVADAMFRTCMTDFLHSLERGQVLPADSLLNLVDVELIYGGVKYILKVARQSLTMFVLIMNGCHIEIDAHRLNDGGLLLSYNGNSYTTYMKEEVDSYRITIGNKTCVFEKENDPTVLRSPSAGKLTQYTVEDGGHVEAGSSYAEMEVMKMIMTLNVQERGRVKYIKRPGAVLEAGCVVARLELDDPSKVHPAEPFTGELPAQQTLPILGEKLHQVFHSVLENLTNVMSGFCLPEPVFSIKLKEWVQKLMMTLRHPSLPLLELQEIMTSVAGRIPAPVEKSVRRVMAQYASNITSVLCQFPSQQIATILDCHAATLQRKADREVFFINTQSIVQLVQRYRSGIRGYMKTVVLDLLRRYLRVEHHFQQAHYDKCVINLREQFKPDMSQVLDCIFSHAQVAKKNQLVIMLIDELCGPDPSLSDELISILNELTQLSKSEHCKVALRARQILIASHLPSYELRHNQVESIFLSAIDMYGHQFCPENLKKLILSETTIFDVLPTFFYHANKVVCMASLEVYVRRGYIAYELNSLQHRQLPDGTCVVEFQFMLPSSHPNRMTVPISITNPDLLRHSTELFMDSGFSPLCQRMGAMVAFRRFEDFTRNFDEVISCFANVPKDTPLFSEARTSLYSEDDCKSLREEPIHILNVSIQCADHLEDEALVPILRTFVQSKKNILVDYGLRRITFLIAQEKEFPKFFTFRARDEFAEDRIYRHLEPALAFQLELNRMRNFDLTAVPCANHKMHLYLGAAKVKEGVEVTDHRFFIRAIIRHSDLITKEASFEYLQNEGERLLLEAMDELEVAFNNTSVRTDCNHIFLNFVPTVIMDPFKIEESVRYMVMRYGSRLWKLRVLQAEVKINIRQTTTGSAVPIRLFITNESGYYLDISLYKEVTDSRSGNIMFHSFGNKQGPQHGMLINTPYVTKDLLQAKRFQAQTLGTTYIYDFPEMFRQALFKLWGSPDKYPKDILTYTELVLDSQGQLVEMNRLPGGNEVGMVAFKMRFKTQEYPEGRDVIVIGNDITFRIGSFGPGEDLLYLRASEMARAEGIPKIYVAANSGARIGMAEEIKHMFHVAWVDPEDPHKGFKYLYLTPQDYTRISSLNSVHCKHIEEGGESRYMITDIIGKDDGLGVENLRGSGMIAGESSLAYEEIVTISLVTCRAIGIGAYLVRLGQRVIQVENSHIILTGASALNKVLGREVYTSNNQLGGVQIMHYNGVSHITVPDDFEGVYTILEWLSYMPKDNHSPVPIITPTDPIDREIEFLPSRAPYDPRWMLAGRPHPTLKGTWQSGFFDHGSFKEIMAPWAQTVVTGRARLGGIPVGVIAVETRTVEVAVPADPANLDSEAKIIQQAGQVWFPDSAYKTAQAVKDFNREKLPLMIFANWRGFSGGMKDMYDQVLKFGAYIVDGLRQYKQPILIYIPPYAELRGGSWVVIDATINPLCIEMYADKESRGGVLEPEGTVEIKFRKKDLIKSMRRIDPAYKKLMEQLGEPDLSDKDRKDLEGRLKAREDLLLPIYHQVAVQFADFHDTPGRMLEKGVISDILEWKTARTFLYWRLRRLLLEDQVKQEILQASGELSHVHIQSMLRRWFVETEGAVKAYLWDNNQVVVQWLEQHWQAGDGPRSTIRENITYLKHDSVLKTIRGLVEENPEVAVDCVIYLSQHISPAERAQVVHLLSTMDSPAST

IC50 [1] | IC50 [2] | Structure (SMILES) | other results
10.9 nM | 26 nM | COc1ccccc1C(Cn1nc(C(C)(C)C(=O)O)c(=O)c2c(C)c(-c3ncco3)sc21)OC1CCN(C(C)=O)CC1 (racemic) [WX011] | –
5.7 nM | 14.2 nM | COc1ccccc1C(Cn1nc(C(C)(C)C(=O)O)c(=O)c2c(C)c(-c3ncco3)sc21)OC1CCN(S(C)(=O)=O)CC1 (racemic) [WX012] | –
7 nM | 20.2 nM | COC(=O)N1CCC(OC(Cn2nc(C(C)(C)C(=O)O)c(=O)c3c(C)c(-c4ncco4)sc32)c2ccccc2OC)CC1 (racemic) [WX015] | –
8.7 nM | 53.6 nM | COc1ccccc1C(Cn1nc(CC(=O)O)c(=O)c2c(C)c(-c3ncco3)sc21)OC1CCOCC1 (stereo not drawn) [WX002] | –
45 nM | 46.6 nM | COc1ccccc1C(Cn1nc(C2(C(=O)O)CC2)c(=O)c2c(C)c(-c3ncco3)sc21)OC1CCOCC1 (stereo not drawn) [WX005] | –
22.1 nM | 20.3 nM | COc1ccccc1C(Cn1nc(C2(C(=O)O)CCC2)c(=O)c2c(C)c(-c3ncco3)sc21)OC1CCOCC1 (stereo not drawn) [WX006] | –
7.2 nM | 26 nM | COc1ccccc1C(Cn1nc(C(C)(C)C(=O)O)c(=O)c2c(C)c(-c3ncco3)sc21)OC1CCN(C(=O)OC(C)(C)C)CC1 (stereo not drawn) [WX014] | –

Continued, compound first:

Structure (SMILES) | IC50 [1] | IC50 [2] | other results
COc1ccccc1C(Cn1nc(C2(C(=O)O)CCCC2)c(=O)c2c(C)c(-c3ncco3)sc21)OC1CCOCC1 (single isomer, unassigned) [WX001B] | 8 nM | 4.9 nM | –
COc1ccccc1C(Cn1nc(CC(=O)O)c(=O)c2c(C)c(-c3ncco3)sc21)OC1CCOCC1 (single isomer, unassigned) [WX003B] | 3.4 nM | 10.9 nM | –
COc1ccccc1[C@H](Cn1nc(C(C)(C)C(=O)O)c(=O)c2c(C)c(-c3ncco3)sc21)OC1CCOCC1 [WX004B] | – | – | Efficacy in NAS (anti-NASH effect) [3]: the same efficacy in both NAS and fibrosis as the reference compound at a higher dose; Efficacy in fibrosis (anti-fibrosis effect) [3]: the same efficacy in both NAS and fibrosis as the reference compound at a higher dose; AUC(0-t) [4]: 7.21 µM·h
COc1ccccc1[C@H](Cn1nc(C2(C(=O)O)CCCCC2)c(=O)c2c(C)c(-c3ncco3)sc21)OC1CCOCC1 [WX007B] | 12.6 nM | 9.1 nM | –
COc1ccccc1[C@H](Cn1nc(C2(C(=O)O)CCOCC2)c(=O)c2c(C)c(-c3ncco3)sc21)OC1CCOCC1 [WX008B] | 13.9 nM | 5.3 nM | clearance [4]: 51.9 mL/min/kg; half-life [4]: 36 min; bioavailability [4]: 5.86%; AUC(0-t) [4]: 0.304 µM·h
COc1ccccc1[C@H](Cn1nc(C(F)(F)C(=O)O)c(=O)c2c(C)c(-c3ncco3)sc21)OC1CCOCC1 [WX009B] | 11 nM | 5.6 nM | clearance [4]: 92.1 mL/min/kg; half-life [4]: 36.6 min; bioavailability [4]: 1.26%; AUC(0-t) [4]: 0.04 µM·h
COc1ccccc1C(Cn1nc(C2(C(=O)O)CCNCC2)c(=O)c2c(C)c(-c3ncco3)sc21)OC1CCOCC1 (stereo not drawn) [WX010] | 70.7 nM | 83.9 nM | –
COc1ccc(F)cc1[C@H](Cn1nc(C(C)(C)C(=O)O)c(=O)c2c(C)c(-c3ncco3)sc21)OC1CCOCC1 [WX016B] | 4.8 nM | 11.1 nM | –
